23 compounds from patent publication EP4293019A1, “4-SUBSTITUTED (1H-BENZO[D]IMIDAZOL-2-YL)-1H-PYRAZOLES AS BUB1 INHIBITORS USEFUL FOR TREATING CANCERS” (Netherlands Translational Research Center Holding B.V., priority 2022, dated 2023) can be followed below.

Structures can show the parent of a compound that is named as a salt.

In the first assay the target is T1, hBUB1 (Homo sapiens, UniProt O43683).
T1 construct: purchased Carna Biosciences 05-187
T1 sequence (O43683 whole entry): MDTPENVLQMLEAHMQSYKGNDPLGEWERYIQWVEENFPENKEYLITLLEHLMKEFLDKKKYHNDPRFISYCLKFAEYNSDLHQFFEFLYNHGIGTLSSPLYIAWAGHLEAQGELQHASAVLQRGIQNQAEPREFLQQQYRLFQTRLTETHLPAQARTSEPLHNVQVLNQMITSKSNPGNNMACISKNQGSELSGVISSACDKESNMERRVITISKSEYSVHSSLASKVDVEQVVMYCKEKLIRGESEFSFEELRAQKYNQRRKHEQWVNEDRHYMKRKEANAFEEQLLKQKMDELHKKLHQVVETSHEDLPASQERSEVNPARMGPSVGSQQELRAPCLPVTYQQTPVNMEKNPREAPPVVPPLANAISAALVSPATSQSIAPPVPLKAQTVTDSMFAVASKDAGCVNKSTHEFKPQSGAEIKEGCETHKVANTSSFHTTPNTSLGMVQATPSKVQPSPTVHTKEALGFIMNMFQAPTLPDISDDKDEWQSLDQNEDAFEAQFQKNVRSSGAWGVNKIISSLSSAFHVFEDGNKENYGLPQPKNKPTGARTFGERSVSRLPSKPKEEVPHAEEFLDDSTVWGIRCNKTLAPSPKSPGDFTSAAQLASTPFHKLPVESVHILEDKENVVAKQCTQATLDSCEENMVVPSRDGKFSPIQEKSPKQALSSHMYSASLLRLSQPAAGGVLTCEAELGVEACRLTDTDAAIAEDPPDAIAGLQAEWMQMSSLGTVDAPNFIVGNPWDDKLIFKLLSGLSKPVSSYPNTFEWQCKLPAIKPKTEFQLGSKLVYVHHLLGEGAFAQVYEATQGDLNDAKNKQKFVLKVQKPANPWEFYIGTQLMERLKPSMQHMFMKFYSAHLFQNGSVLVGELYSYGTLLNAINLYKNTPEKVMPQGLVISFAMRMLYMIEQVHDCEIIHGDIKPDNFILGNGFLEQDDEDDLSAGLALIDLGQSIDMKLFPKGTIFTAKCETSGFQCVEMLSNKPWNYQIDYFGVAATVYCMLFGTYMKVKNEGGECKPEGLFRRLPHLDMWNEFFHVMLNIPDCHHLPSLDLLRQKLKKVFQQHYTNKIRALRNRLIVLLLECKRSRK
T1 sequence (O43684 whole entry partner): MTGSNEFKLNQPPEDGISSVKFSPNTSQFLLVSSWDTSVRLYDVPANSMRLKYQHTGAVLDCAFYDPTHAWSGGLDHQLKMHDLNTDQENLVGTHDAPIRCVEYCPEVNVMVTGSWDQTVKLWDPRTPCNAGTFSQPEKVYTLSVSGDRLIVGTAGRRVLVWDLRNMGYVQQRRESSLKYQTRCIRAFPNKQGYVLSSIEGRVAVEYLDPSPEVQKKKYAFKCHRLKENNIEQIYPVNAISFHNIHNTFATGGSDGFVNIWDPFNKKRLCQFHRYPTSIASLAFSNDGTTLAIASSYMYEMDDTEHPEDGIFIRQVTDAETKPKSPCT
The experiment in a line: hBUB1 kinase activity assay (biochemical fluorescence polarization assay, IMAP). To be noted: BUB1/BUB3 3.26 nM, ATP 15 µM, BUB1/BUB3 substrate 75 nM; N=2, n=2. As to the method:
This protocol describes how the Kinase Activity Assay was performed to determine pIC50 values of compounds of general formula (I) against hBUB1.
Assays were performed in 384-well plates (Greiner, black, flat bottom, 781076) by sequential addition (final concentrations are indicated) of inhibitor (5 µL, 0.3 nM - 1 µM or 3 nM - 10 µM), BUB1/BUB3 (5 µL, 3.26 nM, Carna Biosciences (05-187), lot: 15CBS-0644 D), ATP (5 µL, 15 µM) and BUB1/BUB3 substrate (5 µL, 75 nM, Carna Biosciences (05-187MSSU)), all as 4x working solutions. The final concentration of DMSO was 1%. Assay reactions were stopped by addition of IMAP progressive binding reagent (20 µL, 1200x diluted, Molecular Devices (R8155), lot: 3117896). Each assay included the following controls: (i) a background control (treated with vehicle instead of inhibitor and BUB1/BUB3 substrate), (ii) MIN controls (treated with 5 µM BAY1816032 (MedChem Express) as inhibitor, used as 0% BUB1 activity) and (iii) MAX controls (treated with vehicle instead of inhibitor, used as 100% BUB1 activity). All inhibitors were tested in two separate assays and all inhibitor concentrations were tested in duplicate per assay (N=2, n=2).
For each assay, assay buffer (AB) was freshly prepared and consisted of 20 mM HEPES (prepared by diluting 1 M HEPES, pH 7.2), 5 mM MgCl2, 0.01% Tween-20 and 1 mM DTT. Stocks of inhibitors (in DMSO) were diluted in AB to obtain 4x working solutions (4% DMSO) and 5 µL was added to the assay plate. BUB1/BUB3 (3.26 µM (486 µg/mL) in storage buffer) was diluted in AB to obtain 13.0 nM of which 5 µL was added to all wells of the assay plate. The assay plate was centrifuged (1 min, 200 g) and incubated at RT for 30 min. ATP (4 mM in MilliQ) was diluted in AB to obtain 60 µM of which 5 µL was added to each well. BUB1/BUB3 substrate (1 mM) was diluted in 20 mM HEPES (prepared by diluting 1 M HEPES (pH 7.2) in MilliQ) to obtain 80 µM (this solution was freshly prepared every assay) and further diluted in AB to obtain 300 nM after which 5 µL was added to each well of the assay plate except for background control wells. The assay plate was centrifuged (1 min, 200 g) and incubated at RT in the dark for 180 min. IMAP progressive binding buffer A (5x) and IMAP progressive binding buffer B (5x) were mixed in a ratio to obtain 30% buffer A and 70% buffer B, which was subsequently diluted 5x in MilliQ. IMAP progressive binding reagent was diluted 600x in aforementioned mixture of buffer A and B (to obtain a 2x working solution) of which 20 µL was added to each well of the assay plate. The assay plate was centrifuged (1 min, 200 g) and incubated at RT in the dark for 90 min. Fluorescence polarization was measured on a CLARIOstar plate reader using the following settings: (i) optic settings → excitation = F: 482-16, dichroic = F: LP 504, emission = F: 530-40, (ii) optic = top optic, (iii) speed/precision = maximum precision, (iv) focus adjustment was performed for every assay and (v) gain adjustment was done by setting the target mP value to 35 mP for one of the MIN control wells. Data was normalized between MIN and MAX controls and data was plotted using GraphPad Prism 8.0 using "Nonlinear regression (curve fit)" and "log(inhibitor) vs. normalized response - Variable slope" to determine pIC50 values.
Inhibition is indicated as pIC50 ("-" = not measured). Compounds having an activity designated as "A" provided an pIC50 ≥ 7.0 (IC50 ≤100 nM); compounds having an activity designated as "B" provided an 6.3 ≤ pIC50 < 7.0 (100 nM<IC50 ≤ 500 nM); compounds having an activity designated as "C" provided an 6.0 ≤ pIC50 < 6.3 (500 nM < IC50 ≤ 1 µM); compounds having an activity designated as "D" provided an 6.0 < pIC50 ≤ 5.0 (1 µM < IC50 ≤ 10 µM); and compounds having an activity designated as "E" provided an pIC50 < 5.0 (IC50 >10 µM).
(In general: Polarisation of emitted light reports the rotation of a fluorescent probe.)
For the compound `c1ccc(-c2nccc(Nc3c[nH]nc3-c3nc4ccccc4[nH]3)n2)cc1` [Compound 23, N-(3-(1H-benzo[d]imidazol-2-yl)-1H-pyrazol-4-yl)-2-phenylpyrimidin-4-amine], the “hBUB1 pIC50” value is given as “D (6.0 < pIC50 ≤ 5.0 (1 µM < IC50 ≤ 10 µM))”.

`Cc1ccccc1-c1nccc(Nc2c[nH]nc2-c2nc3ccccc3[nH]2)n1` [Compound 24, N-(3-(1H-benzo[d]imidazol-2-yl)-1H-pyrazol-4-yl)-2-(o-tolyl)pyrimidin-4-amine]: the “hBUB1 pIC50” value is reported as “D (6.0 < pIC50 ≤ 5.0 (1 µM < IC50 ≤ 10 µM))”.

As to `COc1ccccc1-c1nccc(Nc2c[nH]nc2-c2nc3ccccc3[nH]2)n1` [Compound 26, N-(3-(1H-Benzo[d]imidazol-2-yl)-1H-pyrazol-4-yl)-2-(2-methoxyphenyl)pyrimidin-4-amine], the “hBUB1 pIC50” value was “D (6.0 < pIC50 ≤ 5.0 (1 µM < IC50 ≤ 10 µM))”.

`CC(C)c1cccc(-c2nccc(Nc3c[nH]nc3-c3nc4ccccc4[nH]3)n2)c1` [Compound 30, N-(3-(1H-Benzo[d]imidazol-2-yl)-1H-pyrazol-4-yl)-2-(3-isopropylphenyl)pyrimidin-4-amine]: the “hBUB1 pIC50” value is on record as “D (6.0 < pIC50 ≤ 5.0 (1 µM < IC50 ≤ 10 µM))”.

As to `Cc1ccc(-c2nccc(Nc3c[nH]nc3-c3nc4ccccc4[nH]3)n2)cc1` [Compound 32, N-(3-(1H-Benzo[d]imidazol-2-yl)-1H-pyrazol-4-yl)-2-(p-tolyl)pyrimidin-4-amine], the “hBUB1 pIC50” value is “D (6.0 < pIC50 ≤ 5.0 (1 µM < IC50 ≤ 10 µM))”.

In the case of `Clc1ccc(-c2nccc(Nc3c[nH]nc3-c3nc4ccccc4[nH]3)n2)cc1` [Compound 33, N-(3-(1H-Benzo[d]imidazol-2-yl)-1H-pyrazol-4-yl)-2-(4-chlorophenyl)pyrimidin-4-amine], the “hBUB1 pIC50” value is “D (6.0 < pIC50 ≤ 5.0 (1 µM < IC50 ≤ 10 µM))”.

Regarding `COc1ccc(-c2nccc(Nc3c[nH]nc3-c3nc4ccccc4[nH]3)n2)cc1` [Compound 34, N-(3-(1H-Benzo[d]imidazol-2-yl)-1H-pyrazol-4-yl)-2-(4-methoxyphenyl)pyrimidin-4-amine], the “hBUB1 pIC50” value is recorded as “D (6.0 < pIC50 ≤ 5.0 (1 µM < IC50 ≤ 10 µM))”.

In the case of `c1ccc2c(-c3nccc(Nc4c[nH]nc4-c4nc5ccccc5[nH]4)n3)cccc2c1` [Compound 36, N-(3-(1H-Benzo[d]imidazol-2-yl)-1H-pyrazol-4-yl)-2-(naphthalen-1-yl)pyrimidin-4-amine], the “hBUB1 pIC50” value was “D (6.0 < pIC50 ≤ 5.0 (1 µM < IC50 ≤ 10 µM))”.

Turning to `c1ccc2[nH]c(-c3n[nH]cc3Nc3ccnc(-c4cccc5[nH]ncc45)n3)nc2c1` [Compound 38, N-(3-(1H-Benzo[d]imidazol-2-yl)-1H-pyrazol-4-yl)-2-(1H-indazol-4-yl)pyrimidin-4-amine], the “hBUB1 pIC50” value is “D (6.0 < pIC50 ≤ 5.0 (1 µM < IC50 ≤ 10 µM))”.

Turning to `c1ccc2cc(-c3nccc(Nc4c[nH]nc4-c4nc5ccccc5[nH]4)n3)ccc2c1` [Compound 39, N-(3-(1H-Benzo[d]imidazol-2-yl)-1H-pyrazol-4-yl)-2-(naphthalen-2-yl)pyrimidin-4-amine], the “hBUB1 pIC50” value is on record as “D (6.0 < pIC50 ≤ 5.0 (1 µM < IC50 ≤ 10 µM))”.

The same assay, now with this note: BUB1/BUB3 3.26 nM, ATP 15 µM, BUB1/BUB3 substrate 75 nM; N=2, n=2; read-out: hBUB1 pIC50 (converted).
Regarding `C#Cc1nccc(Nc2c[nH]nc2-c2nc3cc(CN4CCOCC4)ccc3[nH]2)n1` [Compound 15, 2-ethynyl-N-(3-(5-(morpholinomethyl)-1H-benzo[d]imidazol-2-yl)-1H-pyrazol-4-yl)pyrimidin-4-amine], the IC50 was 100 to 501 nM.

`c1ccc(CCOc2nccc(Nc3c[nH]nc3-c3nc4cc(CN5CCOCC5)ccc4[nH]3)n2)cc1` [Compound 19, N-(3-(5-(morpholinomethyl)-1H-benzo[d]imidazol-2-yl)-1H-pyrazol-4-yl)-2-phenethoxypyrimidin-4-amine]: the IC50 is 501 to 1000 nM.

For the compound `c1cnn(-c2nccc(Nc3c[nH]nc3-c3nc4cc(CN5CCOCC5)ccc4[nH]3)n2)c1` [Compound 20, N-(3-(5-(Morpholinomethyl)-1H-benzo[d]imidazol-2-yl)-1H-pyrazol-4-yl)-2-(1H-pyrazol-1-yl)pyrimidin-4-amine], the IC50 is 501 to 1000 nM.

As to `c1cc(Nc2c[nH]nc2-c2nc3cc(CN4CCOCC4)ccc3[nH]2)nc(-c2ccsc2)n1` [Compound 21, N-(3-(5-(morpholinomethyl)-1H-benzo[d]imidazol-2-yl)-1H-pyrazol-4-yl)-2-(thiophen-3-yl)pyrimidin-4-amine hydrochloride], the IC50 is 501 to 1000 nM.

As for `c1csc(-c2nccc(Nc3c[nH]nc3-c3nc4cc(CN5CCOCC5)ccc4[nH]3)n2)c1` [Compound 22, N-(3-(5-(morpholinomethyl)-1H-benzo[d]imidazol-2-yl)-1H-pyrazol-4-yl)-2-(thiophen-2-yl)pyrimidin-4-amine hydrochloride], the IC50 was 501 to 1000 nM.

In the case of `Clc1ccccc1-c1nccc(Nc2c[nH]nc2-c2nc3ccccc3[nH]2)n1` [Compound 25, N-(3-(1H-Benzo[d]imidazol-2-yl)-1H-pyrazol-4-yl)-2-(2-chlorophenyl)pyrimidin-4-amine], the IC50 was 501 to 1000 nM.

Consider `Cc1cccc(-c2nccc(Nc3c[nH]nc3-c3nc4ccccc4[nH]3)n2)c1` [Compound 27, N-(3-(1H-Benzo[d]imidazol-2-yl)-1H-pyrazol-4-yl)-2-(m-tolyl)pyrimidin-4-amine], for which the IC50 is 100 to 501 nM.

For the compound `Clc1cccc(-c2nccc(Nc3c[nH]nc3-c3nc4ccccc4[nH]3)n2)c1` [Compound 28, N-(3-(1H-Benzo[d]imidazol-2-yl)-1H-pyrazol-4-yl)-2-(3-chlorophenyl)pyrimidin-4-amine], the IC50 was 100 to 501 nM.

Take `COc1cccc(-c2nccc(Nc3c[nH]nc3-c3nc4ccccc4[nH]3)n2)c1` [Compound 29, N-(3-(1H-Benzo[d]imidazol-2-yl)-1H-pyrazol-4-yl)-2-(3-methoxyphenyl)pyrimidin-4-amine]: the IC50 was 501 to 1000 nM.

Turning to `c1cc(-c2nccc(Nc3c[nH]nc3-c3nc4ccccc4[nH]3)n2)c2[nH]ccc2c1` [Compound 37, N-(3-(1H-Benzo[d]imidazol-2-yl)-1H-pyrazol-4-yl)-2-(1H-indol-7-yl)pyrimidin-4-amine], the IC50 was above 10000 nM.

`Clc1ccccc1Oc1nccc(Nc2c[nH]nc2-c2nc3cc(CN4CCOCC4)ccc3[nH]2)n1` [Compound 48, 2-(2-Chlorophenoxy)-N-(3-(5-(morpholinomethyl)-1H-benzo[d]imidazol-2-yl)-1H-pyrazol-4-yl)pyrimidin-4-amine]: the IC50 was 501 to 1000 nM.

For the compound `Clc1cccc(Oc2nccc(Nc3c[nH]nc3-c3nc4cc(CN5CCOCC5)ccc4[nH]3)n2)c1` [Compound 49, 2-(3-Chlorophenoxy)-N-(3-(5-(morpholinomethyl)-1H-benzo[d]imidazol-2-yl)-1H-pyrazol-4-yl)pyrimidin-4-amine], the IC50 is 501 to 1000 nM.

As for `Clc1ccc(Oc2nccc(Nc3c[nH]nc3-c3nc4cc(CN5CCOCC5)ccc4[nH]3)n2)cc1` [Compound 50, 2-(4-Chlorophenoxy)-N-(3-(5-(morpholinomethyl)-1H-benzo[d]imidazol-2-yl)-1H-pyrazol-4-yl)pyrimidin-4-amine], the IC50 is 501 to 1000 nM.
